Measured values: patent publication US20230285570A1, “THERAPEUTICALLY USEFUL CURE-PRO MOLECULES FOR E3 LIGASE MEDIATED DEGRADATION OF PROTEINS, AND METHODS OF MAKING AND USING THEM” (CORNELL UNIVERSITY, priority 2020, published 2023)
“Also recorded” adds a separate entry of the source.

Legend:
Assay type in all cases: cell-based
Namalwa cells = experiment: CellTiter-Glo cell viability, Namalwa cells; settings: co-dosed 1:1 with CRBN ligand 8047, Namalwa, 72 h, 10 nM-10 μM
Protocol: CellTiter-Glo® 2.0 Cell Viability Assay (Promega) was carried out following the manufacturer's recommendations. Cells were seeded at a density of 1000 cells/well in a white 96 well plates (Corning, #3917) in a total volume of 100 μl with respective monomers, combinations of BRD ligands together with E3 ligase ligands or vehicle control treatment. After a 72 h incubation, 100 ul of the CellTiter-Glo® substrate was added per well and luminescence was read on a Spectramax M5 (Molecular Devices). Dose-response curves were generated using Graphpad Prism software.
Namalwa cells (1×10^4) were treated for 72 hours with the compounds solubilized in DMSO. Compounds were added at 10 nM-10 μM each. Cellular viability was determined using the CellTiter-Glo® Luminescent Cell Viability Assay (Promega) described above. FIG. 56 depicts the CURE-PRO-mediated loss of cellular viability for the BRD-E72 monomer (JQ1 derivatives comprising of boronic acid linkers), and the CRBN ligand, 8047 (a pomalidomide derivative comprising diol linkers) combined in a 1:1 ratio.

caspase 3/7 = experiment: Caspase-Glo 3/7 assay, Namalwa cells; settings: 1:1 with CRBN ligand 8047, Namalwa, 24 h
Protocol: Caspase-glo® assay (Promega) was conducted following the manufacturer's recommendations. Cells were seeded at a density of 5000 cells/well in a white 96 well plates (Corning, #3917) in a total volume of 100 μl with respective monomers, combinations of BRD ligands together with E3 ligase ligands or vehicle control treatment. After a 24 h incubation, 100 μl of the […] substrate was added per well and luminescence was read on a Spectramax M5 (Molecular Devices).
Namalwa cells (5×10^4) were treated for 24 hours with the compounds solubilized in DMSO. FIG. 57 is a bar graph depiction of fold increase of apoptosis assessed via caspase 3/7 activity using the Caspase-Glo assay (Promega) described above.
Molm-13 (FIG. 76A) or Namalwa (FIG. 76B) cells (5×10^4) were treated for 24 hours with the compounds solubilized in DMSO in white 96 well plates (10 nM-10 μM solubilized in DMSO). FIG. 76 is a bar graph depiction of fold increase of apoptosis assessed via caspase 3/7 activity using the Caspase-Glo assay (Promega) described above.

BRD4 [1] = target: T1, BRD4 (Homo sapiens, UniProt O60885); experiment: Summary of BRD4 degradation by CURE-PRO pairs, estimated from Western Blot or WES; design: endogenous in cells; settings: Table 1, aryl-boronic acid BRD4 ligand + 8047
In short: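 Degradation read-out from immunoblot with ECL, or WES capillary electrophoresis with HRP detection, of RIPA lysates. Cells (Namalwa, Ramos, HeLa, MCF7, HT29 or HCT116) were exposed to DMSO-solubilized compounds for 24 h; a check mark marks 30% to 70% or higher degradation.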

BRD4 [2] = target: T1, BRD4; experiment: CURE-PRO-mediated BRD4 degradation in HeLa cells, Western blot; design: endogenous in cells; host or cells: HeLa; settings: 24 h
In short: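 HeLa cells (2.5×10^6) treated 24 h with DMSO-solubilized compounds, degrader pairs combined 1:1, at 1 nM-1 μM, 1-10 μM, 10 μM or 10 and 100 μM each depending on series. RIPA lysates (10-20 μg protein) run on SDS-PAGE and immunoblotted for BRD4 with ECL detection.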

BRD4 [3] = target: T1, BRD4; experiment: CURE-PRO-mediated BRD4 degradation in HeLa cells, WES capillary electrophoresis (ProteinSimple); design: endogenous in cells; host or cells: HeLa
Protocol: All cell lines were purchased from ATCC or DSMZ and grown at 37° C. with 5% CO2. Human HeLa cells were cultured in complete growth medium (Dulbecco's modified Eagle's medium (DMEM) supplemented with 10% FBS); MCF7 cells were cultured in complete growth medium (Dulbecco's modified Eagle's medium (DMEM) supplemented with 10% FBS and 0.01 mg/ml human recombinant insulin (Sigma Aldrich); Namalwa and Ramos cells were cultured in complete growth medium (RPMI 1640 medium supplemented with 10% FBS); HCT116 and HT29 cells were cultured in complete growth medium (McCoy's 5a Medium supplemented with 10% FBS). For cellular degradation of BRD4 studies cells were seeded in a 12-well plate at 70-80% confluency, allowed to attach overnight, and incubated with the indicated compounds for the indicated time. When indicated, a 15-minute pretreatment with 10 μM pomalidomide, 10 μM VHL298, 10 μM Nutlin3a, 1 μM MG-132 or 1 μM Carfilzomib was performed before the addition of CURE-PROs. For washout studies, after CURE-PRO treatment, media was aspirated and incubated with complete medium for the indicated time before lysis.
WES Simple analysis was performed on WES system (ProteinSimple-Biotechne) according to the manufacturer's instructions. Total protein concentrations of cell lysates were determined by the Pierce BCA kit (Thermo Fisher). 3 μL of 0.3 μg/μL of the protein lysate was loaded onto a 12- to 230-kDa WES assay plate (ProteinSimple) where 300 nL sample was withdrawn through a capillary, subjected to electrophoretic separation of proteins by size, and followed by the simultaneous, HRP-based detection of proteins using the Anti-Rabbit Detection Module (Proteinsimple: #DM-001). The electropherograms were checked then the automatic peak detection was manually corrected if it was required.
HeLa cells (2.5×10^6) were treated for 4-24 hours with the compounds solubilized in DMSO. After 4 hours, indicated points were washed and cells were left in full growth media. Compounds were added at 10 μM each. Standardized protein samples were electrophoresed and imaged as described in the WES ProteinSimple section above. FIGS. 44 and 45 depict the time-dependence of CURE-PRO-mediated BRD4 degradation with the BRD-E52 ligand (FIG. 44) and BRD-E72 ligand (FIG. 45), both JQ1 derivatives comprising of boronic acid linkers, and the CRBN binding ligands (8046, 8047, and 8066), pomalidomide derivatives comprising diol linkers.
HeLa cells (2.5×10^6) were treated for 24 hours with the compounds solubilized in DMSO. Compounds were added at 100 nM-10 μM each. Standardized protein samples were electrophoresed and imaged as described in the WES ProteinSimple section above. FIG. 46 depicts the concentration-dependence of CURE-PRO-mediated BRD4 degradation and the requirement for monomer dimerization.

CRBN = target: T2, CRBN (Homo sapiens, UniProt Q96SW2); experiment: CURE-PRO-mediated CRBN degradation in HeLa cells, Western blot; settings: 24 h
T2 construct: endogenous in cells; host or cells: HeLa
Protocol: Namalwa, Ramosm HeLa, MCF7, or HT29 HCT116 cells (2.5-3×10^6) were treated for 24 hours with the indicated compounds solubilized in DMSO. The cells were washed in ice-cold PBS and were then lysed in RIPA lysis buffer (150 mM NaCl, 5 mM EDTA, 1% NP-40, 0.5% sodium deoxycholate, 0.1% SDS, 50 mM Tris, pH 8.0.) with Roche protease inhibitor complete cocktail and phosphatase inhibitors (10 mM sodium fluoride, 10 mM sodium pyrophosphate, 1 mM sodium orthovanadate and 20 mM β-glycerophosphate). The total protein concentrations were determined by Bradford Protein Assay (Pierce) and 10-20 μg of protein was loaded onto 4-15% Tris-Glycine gradient gels (Biorad). After standard gel electrophoresis, the separated proteins were transferred to PVDF membrane by wet transfer. The immunoblots were then blocked for 1 hour in 5% skim milk in TBST or 5% BSA in TBST, according to manufacturer's instructions, before an overnight incubation at 4° C. with indicated antibodies and membranes. […] Signal was detected with ECL Western Blotting Substrate (Pierce) and X-ray film processed with a Konica SRX-101 X-ray film processor or captured by Bio-Rad's Chemidoc Imaging system. […]

HCT116 cells = experiment: MTT toxicity of E3 ligase CURE-PRO monomers, HCT116 cells; settings: monomer alone, HCT116, 10 nM-30 μM, 24 h
Protocol: (§1) CURE-PRO ligands for the E3 ubiquitin ligases were assessed for toxicity by MTT assays as described above. CURE-PRO monomers (10 nM-30 μM) were solubilized in DMSO and added in triplicate to cells (1×10^5 cells/well) seeded in 96 well plates on the previous day. HCT116 (FIG. 105A), MCF7 (FIG. 105B), and HT29 cells (FIG. 105C) were treated with the CURE-PRO monomers for 24 h.

HT29 cells = experiment: MTT toxicity of E3 ligase CURE-PRO monomers, HT29 cells; settings: monomer alone, HT29, 10 nM-30 μM, 24 h
Protocol: as §1

T2 sequence (Q96SW2 whole entry): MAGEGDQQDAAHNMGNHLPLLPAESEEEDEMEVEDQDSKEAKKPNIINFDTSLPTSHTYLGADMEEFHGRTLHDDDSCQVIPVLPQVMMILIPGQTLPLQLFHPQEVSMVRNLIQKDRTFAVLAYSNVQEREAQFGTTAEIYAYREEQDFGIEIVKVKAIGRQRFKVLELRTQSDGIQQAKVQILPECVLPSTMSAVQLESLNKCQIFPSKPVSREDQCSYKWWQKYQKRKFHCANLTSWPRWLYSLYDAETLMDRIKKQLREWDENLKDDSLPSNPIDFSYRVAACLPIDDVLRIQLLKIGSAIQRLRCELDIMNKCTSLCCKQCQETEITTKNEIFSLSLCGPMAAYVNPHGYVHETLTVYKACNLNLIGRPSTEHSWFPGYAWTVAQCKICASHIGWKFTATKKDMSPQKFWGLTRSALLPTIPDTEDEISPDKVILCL

SMILES: CCNC(=O)C[C@@H]1N=C(c2ccc(Cl)cc2)c2cc(-c3cccc(B(O)O)c3)ccc2-n2c(C)nnc21 [BRD-E72, (3-((4S)-6-(4-chlorophenyl)-4-(2-(ethylamino)-2-oxoethyl)-1-methyl-4H-benzo[f][1,2,4]triazolo[4,3-a][1,4]diazepin-8-yl)phenyl)boronic acid]
- loss of cellular viability versus monomer alone (Namalwa cells): an increase in the loss of viability compared to monomer treatment alone; also recorded: marked loss in cell viability
- caspase 3/7 activation (caspase 3/7): demonstrates activation of caspase 3/7; also recorded: marked caspase activation
- Degradation of BRD4, combination with CRBN ligand 8047 (BRD4 [1]): √ (A black check mark indicates efficacy of 30% to 70% or higher protein degradation)
- BRD4 degradation after pomalidomide preincubation (BRD4 [2]; 1:1 with 8047, 10 μM, pomalidomide preincubated 15 min at equimolar concentration): inhibition of CURE-PRO-mediated BRD4 degradation
- BRD4 degradation (BRD4 [2]; BRD ligand with pomalidomide (no 8047), HeLa, 10 μM): failed to induce BRD4 degradation
- BRD4 degradation (BRD4 [2]; co-treated 1:1 with CRBN ligand 8047, HeLa, 10 μM each): CURE-PRO-mediated degradation of BRD4
- sustained BRD4 degradation after drugs are washed out (BRD4 [3]; co-dosed with 8047, 10 μM each, washed after 4 h): up to 8 h
- BRD4 degradation, time course (BRD4 [3]; co-dosed with CRBN ligand 8047, HeLa, 10 μM each, 4-24 h): marked BRD4 degradation after 4 h

SMILES: CC(C)(O)C(=O)C(=O)NCc1cccc2c1C(=O)N(C1CCC(=O)NC1=O)C2=O (centres unmarked) [compound 8065]
- concentrations at which CRBN degradation is noted (CRBN): 10 to 100 µM

SMILES: COc1ccc(C2=N[C@@H](c3ccc(Cl)cc3)[C@@H](c3ccc(Cl)cc3)N2C(=O)N2CCN(CCNC(=O)c3cccc(B(O)O)c3)C(=O)C2)c(OC(C)C)c1 [compound 8312, (3-((2-(4-((4S,5R)-4,5-bis(4-chlorophenyl)-2-(2-isopropoxy-4-methoxyphenyl)-4,5-dihydro-1H-imidazole-1-carbonyl)-2-oxopiperazin-1-yl)ethyl)carbamoyl)phenyl)boronic acid]
- loss of viability (MTT) (HCT116 cells): loss of viability only noted at higher concentrations (30 μM); also recorded: Toxicity at higher concentrations
- loss of viability (MTT) (HT29 cells): loss of viability only noted at higher concentrations (30 μM); also recorded: Toxicity at higher concentrations
